According to patent publication US9927437B2, “Treating neurodegenerative disease” (THE BRIGHAM AND WOMEN'S HOSPITAL, INC., priority 2013, dated 2018):
Entries after “also recorded” stand apart in the source; their conditions may differ.

Assays:
T cells = assay: T-cell response in EAE mice (recall proliferation, cytokines, polarization); type: in vivo, mouse; conditions: for T-cell response: NOD EAE, daily Miglustat
Description: FIGS. 9a-d. Depletion of reactive astrocytes reduces the recruitment of peripheral leukocytes to the CNS. (a-d). EAE was induced in WT or GFAP^TK F1 hybrid mice and Ganciclovir (GCV) or vehicle control (PBS) was administered as in FIG. 1b. Data are representative of three independent experiments with n≥7 mice/group (means and s.e.m.). (a) Effect of GCV administration on reactive astrocytes detected by GFAP staining (b) Recruitment of monocytes (red gate) and lymphocytes (green gate) to the CNS assessed by FACS. Data are representative of three independent experiments. Statistical analysis by Student's t-test. (c, d) Effect of the depletion of reactive astrocytes during the chronic phase of EAE on the recall proliferative response to MOG(35-55) or anti-CD3 (c) and the expression of IFN-γ, IL-17A, Foxp3 and IL-10 in splenic CD4+ T cells (d). *P<0.05, and (n.s) not significant.
FIGS. 12a-i. […] (a) Naïve C57BL/6 (Left panel) and NOD (right panel) mice were treated with LacCer (10 μg per mouse) or vehicle as indicated by red arrows, and EAE clinical scores was recorded. At experimental end point (day 25), astrocytes were isolated and their transcriptional profile was determined by nCounter Nanostring analysis. (b-e) EAE was induced in C57BL/6 (b, c) or NOD mice (d, e) and LacCer or vehicle were administrated as in FIGS. 1g and 1h, respectively. Splenic T-cell recall response to MOG(35-55) (20 μg/ml); proliferation (b, d) and secretion of IL-17A, IFN-γ and IL-10 cytokines (c, e). Data are representative of two independent experiments with ≥8 mice/group (mean and s.e.m.). (f-i) EAE NOD mice were treated with PDMP or vehicle during the chronic phase as in FIG. 1K. Data are representative of three independent experiments with n≥8 mice/group (mean and s.e.m.). (f) qPCR analysis of the expression of tbx21, ifng, rorc, il17A, csf2, il10, foxp3, and tgfb1 mRNA of CD3^+CD4^+ T-cells isolated from the CNS; expression is presented relative to gapdh. (g, h) Recall response to MOG(35-55) (20 μg/ml); proliferation (g) and secretion of IL-17A, IFN-γ and IL-10 cytokines (h). (i) Expression of IFN-γ, IL-17A, Foxp3 and IL-10 by splenic CD3^+CD4^+ T cells (mean and s.e.m.).
Splenocytes and lymph node cells were cultured in X-VIVO medium and were plated for 72 h at a density of 5×10^5 cells per well in the presence of MOG35-55 peptide. During the final 16 h, cells were pulsed with […] [3H]thymidine (PerkinElmer), followed by collection on glass fiber filters and analysis of incorporated [3H]thymidine in a-counter (1450 MicroBeta TriLux; PerkinElmer). Supernatants were collect after 48 h of culture for cytokine measurement by enzyme-linked immunosorbent assay^14. For intracellular cytokine staining, cells were stimulated for 6 h with PMA (phorbol 12-myristate 13-acetate; 50 ng/ml; Sigma), ionomycin (1 μg/ml; Sigma) and monensin (GolgiStop; […]; BD Biosciences). After staining of surface markers, cells were fixed and made permeable according to the manufacturer's instructions BD Cytofix/Cytoperm™ Kit (BD Biosciences), or Foxp3 Fixation/Permeabilization (Ebiosceince).

reactive astrocytes = assay: EAE in F1 NOD C57BL/6 GFAP-HSV-TK hybrid mice, depletion of reactive astrocytes; type: in vivo, mouse
EAE NOD mice = assay: EAE in NOD mice, progressive phase (clinical score, histopathology, body weight); type: in vivo; conditions: NOD EAE; for body weight: daily Miglustat
primary astrocytes = assay: Activation of cultured primary astrocytes, mRNA expression; type: cell-based, mouse; conditions: primary mouse astrocytes activated with LPS/IFNγ; Miglustat
Description: FIGS. 3a-m. LacCer produced by B4GALT6 acts in an autocrine manner to boost astrocyte activation. Cultured astrocytes were pre-treated for 1 h with PDMP (25 μM), LacCer (10 μM), both (LacCer+PDMP), or vehicle (vehicle), followed by activation with lipopolysaccharide (100 ng/ml) and Interferon-γ (100 Units/ml) (LPS/IFNγ) or left un-treated (control). (a) Heatmap depicting mRNA expression, as detected by Nanostring nCounter analysis, in astrocytes stimulated with LPS/IFNγ. Representative data of three independent experiments. (b) Histogram presentation of the normalized gene expression presented in (a), statistical analysis by one-way ANOVA followed by Tukey post-hoc analysis. (c-i) The expression of B4galt5 (shB4galt5), B4galt6 (shB4galt6) or non-targeting shRNA (ShControl) in C8-D30 astrocytes was knocked-down using verified shRNA (n≥4). (c) qRT analysis of B4galt5 and B4galt6 mRNA expression. (d-f) astrocytes were activated as in (a) and mRNA expression for (d) H2-Aa, (e) Ccl5 and (f) Cxcl10 was determined; expression is presented relative to house keeping gene (Gapdh) (n≥4). (g) Schematic map of the astrocyte-specific shRNA lentiviral vector. […] NOD mice were injected i.c.v. with 1×10^7 IU of shControl, shB4galt5 or shB4galt6 lentivirus, at day 35 after EAE induction (progressive phase). n=10 mice per group (h, i) 10 days after i.c.v. injection experiment was terminated and (h) b4galt5 and b4galt6 expression levels were determined by qPCR in astrocytes isolated from naïve or EAE NOD mice; expression normalized to gapdh and presented relative to that of cells from naïve mice. Representative data of two independent experiments, Statistical analysis by one-way ANOVA, followed by Tukey post-hoc analysis. (i) LacCer levels were quantified of in the CNS of naïve or EAE NOD mice treated as shown in (j). Statistical analysis by one-way ANOVA, followed by Tukey post-hoc analysis. (j) EAE clinical scores. Representative data of two independent experiments. Statistical analysis as in (FIG. 1a). (k) Cultured primary astrocytes were pre-treated for 1 h with PDMP (25 μM), LacCer (10 μM), both (LacCer+PDMP), or vehicle control (vehicle), followed by activation with LPS/IFNγ for 45 min, or left un-treated (control, Con). IRF-1 and Lamin B expression in the nuclear fraction analyzed by western blot and the degree of IRF-1 translocation to the nucleus was assessed by the ratio between the expression of IRF-1 and Lamin-B in the nuclear fractions following densitometric quantification on four independent experiments (right panel). Statistical analysis by one-way ANOVA, followed by Tukey post-hoc analysis. (l) ChIP analysis of the interaction of NF-κB, and IRF-1 with the) nos2 promoter in primary cultured astrocytes. Experimental design and data analysis as in (FIG. 4c). Data from two independent experiments (m) qPCR analysis of the expression of nos2, csf2, ccl2, ccl5, il6, and tlr2 in astrocyte cultures established from WT or IRF-1 deficient (IRF-1 KO) mice, pre-treated with LacCer or vehicle, and activated with LPS/IFNγ. […]
FIGS. 14a-g. […] (a) Cultured astrocytes were pre-treated for 1 h with PDMP (25 μM), LacCer (10 μM), both (LacCer+PDMP), or vehicle control (vehicle), followed by activation with LPS/IFNγ for 6 h, or left un-treated (control, Con). mRNA expression was analyzed 6 h following activation. qPCR analysis of the expression of cc/5, csf2, nos2, il6, H2-Aa, and tlr2 presented relative to gapdh. […]

inflammatory monocytes = assay: Recruitment of inflammatory monocytes to the CNS of EAE NOD mice (flow cytometry); type: in vivo, mouse; conditions: daily Miglustat from onset of progressive phase

SMILES	peripheral T-cell response (T cells; GFAP-TK F1 mice, GCV during progressive phase)	EAE scores, astrocyte depletion during the progressive phase (reactive astrocytes; 25 mg/kg daily s.c. days 30-50)	EAE scores, astrocyte depletion during the acute phase (reactive astrocytes; 25 mg/kg daily s.c. from 7 days before induction until day 15)	leukocyte infiltration in the CNS (reactive astrocytes; treatment during progressive phase, FACS)	body weight (EAE NOD mice)	body weight (EAE NOD mice; listed as miglustat)	clinical course of EAE disease progression (EAE NOD mice; daily from onset of progressive phase, oral 1800 or 600 mg/kg, or nasal 900 mg/kg twice a day)	T-cell response (T cells)	T-cell response (T cells; listed as miglustat)	astrocyte activation (primary astrocytes)	recruitment of inflammatory monocytes to the CNS (inflammatory monocytes)
Nc1nc(O)c2ncn(COC(CO)CO)c2n1 [GCV, Ganciclovir]	did not affect	significant amelioration of EAE	significant worsening of EAE	decreased leukocyte infiltration	–	–	–	–	–	–	–
CCCCN1C[C@H](O)[C@@H](O)[C@H](O)[C@H]1CO [Miglustat, N-butyl-deoxynojirimycin]	–	–	–	–	does not affect body weight	did not affect	suppressed the clinical course of disease progression; also recorded: halts chronic EAE progression	does not affect T-cell polarization	did not affect	inhibits astrocyte activation	reduced the recruitment; also recorded: reduces monocytes recruitment
